{"source": "patent US6949660B2", "about": "“Chiral (1pyrrolino) fullerene derivatives” (Seth Nanotechnology, Incorporated, priority 1995, dated 2005)", "key": {"[1]": {"test_system": "superoxide radicals (O2−)", "experiment": "Superoxide radical scavenging: xanthine/xanthine oxidase system, cytochrome C reduction, absorption at 550 nm", "assay_type": "biochemical", "conditions": "xanthine 50 μM, cytochrome C 10 μM, phosphate buffer pH 7.8", "protocol": "Detection of high free radical scavenging potency of hydrophilic fullerene derivatives. […] Therefore, the detected optical absorption intensity of the reduced cytochrome (Fe^+2) C can be correlated to the quantity of superoxide radicals reacted with cytochrome (Fe^+3) C. Scavenging of superoxide radicals by hydrophilic fullerene derivatives in the bio-medium inhibits the formation of reduced cytochrome (Fe+2) C and thus reduce the optical absorption at 550 nm.\nIn one experiment, xanthine (50 μM) was added to a physiological medium (3 ml) containing cytochrome C (10 μM), ethylenediaminetetraacetic acid (EDTA) (10 mM) and a phosphate buffer (50 mM) at pH 7.8. The mixture was then added xanthine oxidase in quantity enough to induce 0.025 unit of optical absorption at 550 nm per 5 min (Mc Cord, et al. J. Biol. Chem. 1969, 244, 6049.). Subsequently, 1,3-dimethyl-N-succinamitofulleropyrrolidine-1,3-dicarboxylic acid, C60[C(CH3)CO2H]2NCO—CH2CH2CO2H, prepared in Example 12, in a concentration of 0, 5.0, 10.0, 25.0, 50, and 100 μM was added in separated runs while the absorption intensity of the reduced cytochrome C was recorded. A rapid decrease of reduced cytochrome C to roughly 50% and 20% of the control value was obtained with the dose of 1,3-dimethyl-N-succinamitofulleropyrrolidine-1,3-dicarboxylic acid as 25 and 100 μM, respectively."}, "[2]": {"test_system": "Fibrosarcoma tumor cells (CCRC 60037)", "experiment": "Growth inhibition of fibrosarcoma tumor cells upon photo-irradiation, MTT assay", "assay_type": "cell-based", "conditions": "compound 2.5 μM for 24 h; fluorescence light (27 W) photo-irradiation more than 20 min; then 48 h at 37° C.", "protocol": "The growth inhibitory effect of 1,3-dimethyl-N-succinamitofulleropyrrolidine-1,3-dicarboxylic acid, C60[C(CH3)CO2H]2NCO—CH2CH2CO2H, which was prepared as described in Example 12, on fibrosarcoma tumor cells upon photo-irradiation was studied in vitro. Fibrosarcoma tumor cells (0.5 ml, 4×10^4/ml, CCRC 60037) were grown in the MEM medium in a 24-well plate for a period of 24 h. It was treated by 1,3-dimethyl-N-succinamitofulleropyrrolidine-1,3-dicarboxylic acid in a concentration of 0.0, 2.5, 5.0, 7.5, and 10.0 μM for a period of 24 hours. The MEM medium was removed and replaced by the fresh medium (1.0 ml). The cell-containing plates were exposed to a fluorescence light source (27 W) in a distance of 5-6 cm for a period of 10, 20, 40, and 60 min. The plates were then kept in incubator at 37° C. a period of 48 h. Measurement of cell viability in each plate was performed by the MTT assay using optical absorption at 540 nm."}}}
{"substance": "1,3-dimethyl-N-succinamitofulleropyrrolidine-1,3-dicarboxylic acid", "values": [{"measurement": "reduced cytochrome C, % of the control value", "setting": "[1]; compound 25 μM", "value": "roughly 50%"}, {"measurement": "reduced cytochrome C, % of the control value", "setting": "[1]; compound 100 μM", "value": "~20", "unit": "%"}, {"measurement": "tumor cell count (cell viability, MTT, absorption at 540 nm)", "setting": "[2]", "value": "rapid decrease in the tumor cell count"}]}
